Results: patent US4568490A, “Aminopropylaminobleomycin derivatives and process for preparation thereof” (Zaidan Hojin Biseibutsu Kagaku Kenkyu Kai, priority 1981, dated 1986)

How the values were obtained:
[1] = tested on: Lymphocytic leukemia P-388; assay: In vivo antitumor activity, murine lymphocytic leukemia P-388; settings: BDF1-SLC mice, i.p. transplant, once daily for 9 days, 30 days observation; T/C more than 130 effective
Experimental: The following data with respect to the testing of a group of the presently claimed substances in vivo according to a standard test method involving murine lymphocytic leukemia P-388 is presented to lend further assurance as to the utility of the compounds as inhibitors of mammalian tumors.
Lymphocytic leukemia P-388 cells (1×10^5 /0.2 ml) were transplanted intraperitoneally into male BDF1 -SLC mice (5 mice/group). Each of the compounds of this invention was diluted with physiological saline to various concentrations. Each dilution was administered at a dose of 0.1 ml/10 g of body weight once daily for 9 days, starting on the day after the day of the transplantation. The mice of the control group were administered physiological saline.
The average number of days that the group receiving the compound of this invention survived was calculated. The figure obtained was divided by the average number of survival days for the control group, and was multiplied by 100 (T/C (%)).
T/C value more than 130 was considered to be effective.

[2] = tested on: Hela S3 cells; assay: Growth inhibitory activity against Hela S3 cells; type: cell-based; settings: Cu-free form; Hela S3, 3 days incubation with compound
Experimental: The percentage growth inhibition was calculated using the equation: […] wherein A is the ultimate number of cells on the third day from the addition of a test sample, B is the ultimate number of cells in the control (without the addition of test sample), and C is the number of cells on the day of addition of the test sample.

[3] = tested on: Mycobacterium smegmatis ATCC 607; assay: Antimicrobial activity, agar plate-cylinder method; type: cell-based; settings: Cu-free form; bleomycin A2 (Cu-free form) standard assumed 1,000 mcg/mg
Experimental: (§1) The activity was assayed against the above test microorganisms by the method of agar plate-cylinder, assuming the potency of bleomycin A2 (Cu-free form), used as standard, to be 1,000 mcg/mg.

[4] = tested on: Bacillus subtilis; assay: Antimicrobial activity, agar plate-cylinder method; type: cell-based; settings: Cu-free form; bleomycin A2 (Cu-free form) standard assumed 1,000 mcg/mg
Experimental: (1) Antimicrobial activity against Mycobacterium smegmatis ATCC 697 and Bacillus subtilis.
as §1

[5] = tested on: ICR strain mice; assay: Pulmonary toxicity (pulmonary fibrosis) in mice, intraperitoneal injection; type: in vivo; settings: 5 mg/kg i.p. once a day for 10 days; for Grade of pulmonary fibrosis, % / Incidence of pulmonary fibrosis, % / Incidence: number of mice suffering from pulmonary fibrosis / Grade: total score of pulmonary fibrosis/total number of test animal: autopsy after 5 weeks; for Incidence: number of mice suffering from pulmonary fibrosis: affected/total mice; for Grade: total score of pulmonary fibrosis/total number of test animal: score 0-6 points; for Grade of pulmonary fibrosis, Ratio / Incidence of pulmonary fibrosis, Ratio: reference of the ratio not stated
Experimental: (3) Pulmonary toxicity (pulmonary fibrosis) in mice.
ICR strain mice (male; 15 weeks old; 9 mice per group) were used. Each mouse was administered with a daily dose of 5 mg/kg of the test sample by intraperitoneal injection, once a day, for 10 consecutive days. After completion of the predetermined administration, the mice were kept for 5 weeks under observation, then slaughtered, and autopsied to examine the incidence and grade of pulmonary fibrosis. The evaluation was made by comparing the number of administered mice suffering from pulmonary fibrosis and the grade of the disease.
(§2) In Tables 4A and 4B, the grade was numerically rated as follows:
(§3) 1 point: Accumulation of exudate in pulmonary alveoli and fibrosis-like change in alveolar septum.
(§4) 2 points: Fibrosis in several areas.
(§5) 4 points: Scattered fibrosis.
(§6) 6 points: Fibrosis in more than two-thirds of the total area.

[6] = tested on: ICR mice; assay: Pulmonary toxicity (pulmonary fibrosis) in mice, intratracheal instillation; type: in vivo; settings: 16 μg/50 μl/mouse intratracheally, sacrificed 4 weeks after instillation; for Grade: total score of pulmonary fibrosis/total number of samples: score 0-6 points
Experimental: Male 15 weeks old ICR mice were used. Sixteen μg/50 μl/mouse of each test sample was intratracheally instilled. The mice were sacrificed 4 weeks after instillation to examine the incidence and grade of pulmonary fibrosis. The evaluation was made by comparing the number of administered mice suffering from pulmonary fibrosis and the grade of the disease.
as §2, §3, §4, §5, §6

SMILES: Cc1c(N)nc(C(CC(N)=O)NCC(N)C(N)=O)nc1C(=O)NC(C(=O)NC(C)C(O)C(C)C(=O)NC(C(=O)NCCc1nc(-c2nc(C(=O)NCCCN(C)CCCNCc3c4ccccc4cc4ccccc34)cs2)cs1)C(C)O)C(OC1OC(CO)C(O)C(O)C1OC1OC(CO)C(O)C(OC(N)=O)C1O)c1cnc[nH]1 (centres unmarked) [compound 21, 3-{N--Methyl-N--[3'-(9-anthramethylamino)propyl]amino}propylaminoBLM]
- Max. T/C on Mouse Lymphocytic Leukemia P 388 [1]: 148%
- 50% growth inhibition concentration (ID50) of Cu--free compound against cultured Hela cell [2]: 0.80 µg/mL
- Antimicrobial potency of Cu--free compound, against Mycobacterium smegmatis ATCC 607 [3]: 13250 mcg potency per mg
- Antimicrobial potency of Cu--free compound, against Bacillus subtilis [4]: 4504 mcg potency per mg

SMILES: CCCC[N+](CCCC)(CCCNC(=O)c1csc(-c2csc(CCNC(=O)C(NC(=O)C(C)C(O)C(C)NC(=O)C(NC(=O)c3nc(C(CC(N)=O)NCC(N)C(N)=O)nc(N)c3C)C(OC3OC(CO)C(O)C(O)C3OC3OC(CO)C(O)C(OC(N)=O)C3O)c3cnc[nH]3)C(C)O)n2)n1)CCCN(Cc1ccccc1)Cc1ccccc1 (centres unmarked) [compound 38, 3-{N,N--Dibutyl-N--[3'-(dibenzylamino)propyl]amino}propylaminoBLM]
- Max. T/C on Mouse Lymphocytic Leukemia P 388 [1]: 156%
- 50% growth inhibition concentration (ID50) of Cu--free compound against cultured Hela cell [2]: 2.00 µg/mL
- Antimicrobial potency of Cu--free compound, against Mycobacterium smegmatis ATCC 607 [3]: 17910 mcg potency per mg
- Grade of pulmonary fibrosis, % [5]: 0%
- Incidence of pulmonary fibrosis, % [5]: 0%
- Incidence: number of mice suffering from pulmonary fibrosis [5]: 0/9
- Grade: total score of pulmonary fibrosis/total number of test animal [5]: 0/27
- Grade of pulmonary fibrosis, Ratio [5]: 0.00
- Incidence of pulmonary fibrosis, Ratio [5]: 0.00
- Antimicrobial potency of Cu--free compound, against Bacillus subtilis [4]: 530 mcg potency per mg

SMILES: Cc1c(N)nc(C(CC(N)=O)NCC(N)C(N)=O)nc1C(=O)NC(C(=O)NC(C)C(O)C(C)C(=O)NC(C(=O)NCCc1nc(-c2nc(C(=O)NCCCN(CCCN(Cc3ccccc3)Cc3ccccc3)Cc3ccccc3)cs2)cs1)C(C)O)C(OC1OC(CO)C(O)C(O)C1OC1OC(CO)C(O)C(OC(N)=O)C1O)c1cnc[nH]1 (centres unmarked) [Compound No. 40, 3-{N--benzyl-N--[3'-(dibenzylamino)propyl]amino}propylaminoBLM]
- Max. T/C on Mouse Lymphocytic Leukemia P 388 [1]: 154%
- 50% growth inhibition concentration (ID50) of Cu--free compound against cultured Hela cell [2]: 1.90 µg/mL
- Antimicrobial potency of Cu--free compound, against Mycobacterium smegmatis ATCC 607 [3]: 4450 mcg potency per mg
- Antimicrobial potency of Cu--free compound, against Bacillus subtilis [4]: 479 mcg potency per mg

SMILES: Cc1c(N)nc(C(CC(N)=O)NCC(N)C(N)=O)nc1C(=O)NC(C(=O)NC(C)C(O)C(C)C(=O)NC(C(=O)NCCc1nc(-c2nc(C(=O)NCCCN(C)CCCNCC(c3ccccc3)c3ccccc3)cs2)cs1)C(C)O)C(OC1OC(CO)C(O)C(O)C1OC1OC(CO)C(O)C(OC(N)=O)C1O)c1cnc[nH]1 (centres unmarked) [compound 17, 3-{N--Methyl-N--[3'-(2",2"-diphenylethylamino)propyl]amino}propylaminoBLM]
- 50% growth inhibition concentration (ID50) of Cu--free compound against cultured Hela cell [2]: 1.00 µg/mL
- Antimicrobial potency of Cu--free compound, against Mycobacterium smegmatis ATCC 607 [3]: 21084 mcg potency per mg
- Grade of pulmonary fibrosis, % [6]: 7%
- Incidence of pulmonary fibrosis, % [6]: 22%
- Incidence: number of mice with pulmonary fibrosis/number of mice [6]: 2/9
- Grade: total score of pulmonary fibrosis/total number of samples [6]: 2/27
- Grade of pulmonary fibrosis, % [5]: 7%
- Incidence of pulmonary fibrosis, % [5]: 20%
- Incidence: number of mice suffering from pulmonary fibrosis [5]: 1/5
- Grade: total score of pulmonary fibrosis/total number of test animal [5]: 1/15
- Grade of pulmonary fibrosis, Ratio [5]: 0.08
- Incidence of pulmonary fibrosis, Ratio [5]: 0.32
- Antimicrobial potency of Cu--free compound, against Bacillus subtilis [4]: 3554 mcg potency per mg

SMILES: Cc1c(N)nc(C(CC(N)=O)NCC(N)C(N)=O)nc1C(=O)NC(C(=O)NC(C)C(O)C(C)C(=O)NC(C(=O)NCCc1nc(-c2nc(C(=O)NCCCN3CCN(CCCNCC4CCCCCCC4)CC3)cs2)cs1)C(C)O)C(OC1OC(CO)C(O)C(O)C1OC1OC(CO)C(O)C(OC(N)=O)C1O)c1cnc[nH]1 (stereo not drawn) [compound 45, 3-[4-(3-Cyclooctylmethylaminopropyl)piperazin-l-yl]propylaminoBLM]
- Max. T/C on Mouse Lymphocytic Leukemia P 388 [1]: 163%
- 50% growth inhibition concentration (ID50) of Cu--free compound against cultured Hela cell [2]: 0.81 µg/mL
- Antimicrobial potency of Cu--free compound, against Mycobacterium smegmatis ATCC 607 [3]: 43000 mcg potency per mg
- Grade of pulmonary fibrosis, % [5]: 0%
- Incidence of pulmonary fibrosis, % [5]: 0%
- Incidence: number of mice suffering from pulmonary fibrosis [5]: 0/9
- Grade: total score of pulmonary fibrosis/total number of test animal [5]: 0/27
- Grade of pulmonary fibrosis, Ratio [5]: 0.00
- Incidence of pulmonary fibrosis, Ratio [5]: 0.00
- Antimicrobial potency of Cu--free compound, against Bacillus subtilis [4]: 15100 mcg potency per mg

SMILES: Cc1c(N)nc(C(CC(N)=O)NCC(N)C(N)=O)nc1C(=O)NC(C(=O)NC(C)C(O)C(C)C(=O)NC(C(=O)NCCc1nc(-c2nc(C(=O)NCCC[N+](C)(C)CCCNCC3CCCCCCC3)cs2)cs1)C(C)O)C(OC1OC(CO)C(O)C(O)C1OC1OC(CO)C(O)C(OC(N)=O)C1O)c1cnc[nH]1 (centres unmarked) [compound 36, 3-{N,N--Dimethyl-N--[3'-(cyclooctylmethylamino)propyl]amino}propylaminoBLM]
- Max. T/C on Mouse Lymphocytic Leukemia P 388 [1]: 150%
- 50% growth inhibition concentration (ID50) of Cu--free compound against cultured Hela cell [2]: 0.29 µg/mL
- Antimicrobial potency of Cu--free compound, against Mycobacterium smegmatis ATCC 607 [3]: 21840 mcg potency per mg
- Antimicrobial potency of Cu--free compound, against Bacillus subtilis [4]: 20000 mcg potency per mg

SMILES: Cc1c(N)nc(C(CC(N)=O)NCC(N)C(N)=O)nc1C(=O)NC(C(=O)NC(C)C(O)C(C)C(=O)NC(C(=O)NCCc1nc(-c2nc(C(=O)NCCCN(C)CCCNCc3ccc(Cl)cc3Cl)cs2)cs1)C(C)O)C(OC1OC(CO)C(O)C(O)C1OC1OC(CO)C(O)C(OC(N)=O)C1O)c1cnc[nH]1 (centres unmarked) [compound 8, 3-{N--Methyl-N--[3'-(o,p-dichlorobenzylamino)propyl]amino}propylaminoBLM]
- 50% growth inhibition concentration (ID50) of Cu--free compound against cultured Hela cell [2]: 1.05 µg/mL
- Antimicrobial potency of Cu--free compound, against Mycobacterium smegmatis ATCC 607 [3]: 13013 mcg potency per mg
- Grade of pulmonary fibrosis, % [6]: 25%
- Incidence of pulmonary fibrosis, % [6]: 25%
- Incidence: number of mice with pulmonary fibrosis/number of mice [6]: 2/8
- Grade: total score of pulmonary fibrosis/total number of samples [6]: 6/24
- Grade of pulmonary fibrosis, % [5]: 7%
- Incidence of pulmonary fibrosis, % [5]: 11%
- Incidence: number of mice suffering from pulmonary fibrosis [5]: 1/9
- Grade: total score of pulmonary fibrosis/total number of test animal [5]: 2/27
- Grade of pulmonary fibrosis, Ratio [5]: 0.08
- Incidence of pulmonary fibrosis, Ratio [5]: 0.18
- Antimicrobial potency of Cu--free compound, against Bacillus subtilis [4]: 2940 mcg potency per mg

SMILES: Cc1c(N)nc(C(CC(N)=O)NCC(N)C(N)=O)nc1C(=O)NC(C(=O)NC(C)C(O)C(C)C(=O)NC(C(=O)NCCc1nc(-c2nc(C(=O)NCCCN(C)CCCNCc3ccc(Cl)c(Cl)c3)cs2)cs1)C(C)O)C(OC1OC(CO)C(O)C(O)C1OC1OC(CO)C(O)C(OC(N)=O)C1O)c1cnc[nH]1 (centres unmarked) [compound 7, 3-{N--Methyl-N--[3'-(m,p-dichlorobenzylamino)propyl]amino}propylaminoBLM]
- 50% growth inhibition concentration (ID50) of Cu--free compound against cultured Hela cell [2]: 0.82 µg/mL
- Antimicrobial potency of Cu--free compound, against Mycobacterium smegmatis ATCC 607 [3]: 10601 mcg potency per mg
- Grade of pulmonary fibrosis, % [6]: 13%
- Incidence of pulmonary fibrosis, % [6]: 30%
- Incidence: number of mice with pulmonary fibrosis/number of mice [6]: 3/10
- Grade: total score of pulmonary fibrosis/total number of samples [6]: 4/30
- Grade of pulmonary fibrosis, % [5]: 4%
- Incidence of pulmonary fibrosis, % [5]: 11%
- Incidence: number of mice suffering from pulmonary fibrosis [5]: 1/9
- Grade: total score of pulmonary fibrosis/total number of test animal [5]: 1/27
- Grade of pulmonary fibrosis, Ratio [5]: 0.05
- Incidence of pulmonary fibrosis, Ratio [5]: 0.18
- Antimicrobial potency of Cu--free compound, against Bacillus subtilis [4]: 4263 mcg potency per mg
